Laboratory results as given in patent US20130303376A1, “METHODS OF IMPROVING PLANT GROWTH” (Bayer CropScience AG, priority 2007, published 2013).
“And” between values parts separate entries of the source, which are not always exact repeats. Equal entries are not always repeated.

What was measured:
Format in all cases: in vivo
[1] = test system: Solanum lycopersicum ‘Rentita’; test: Root growth test of tomatoes under oxygen deficiency conditions in the nutrient solution; conditions: 1.0 mg a.i./plant; floating box, nutrient solution not aerated (oxygen deficiency stress); average maximum root length after 12 d
Procedure: To prepare a suitable solution of the preparation, I part by weight of active substance is mixed with water to give the desired concentration.
(§1) Tomato seeds (Solanum lycopersicum ‘Rentita’) are grown in rock wool. After germination, the rock wool blocks are transferred into a floating box provided with the solution of the preparation and grown on under suitable climatic conditions.
(§2) The nutrient solution of the floating box was not aerated (oxygen deficiency stress).
After the desired period of time, the maximum length of the root per tomato plant is measured, and the average root length per floating box and treatment is calculated.

Botrytis cinerea = test: Drench application for controlling Botrytis cinerea (grey mould) on tomatoes; design: Disease level, replicates 1-9 / Disease level Ø / Disease level and shed leaves: scale not given here; conditions: tomato; for Disease level Ø / Shed leaves Ø / Disease level, replicates 1-9 / Shed leaves, replicates 1-9 / Disease level and shed leaves: 10 d post-inoculation, drench, all actives 5 d before inoculation; for Disease level Ø / Shed leaves Ø / Disease level, replicates 1-9 / Shed leaves, replicates 1-9: I-34/I-7 10 mg a.i./plant, fluopyram 20 mg a.i./plant; for Disease level Ø / Shed leaves Ø: mean of 9; for Disease level, replicates 1-9 / Shed leaves, replicates 1-9: single replicates; for Disease level and shed leaves: sum of the two Ø
Procedure: To control Botrytis cinerea (grey mould) on tomatoes, tomato plants which had been grown in peaty soil were treated with the compounds I-34 or I-7 alone or in combination with the fungicide fluopyram (drench application) 5 or 10 days before being inoculated with Botrvtis cinerea. [table] The inoculation with Botrytis cinerea was carried out at the stated points in time (5 or 10 days after drench application of compound I-34, I-7 and/or fluopyram). Inoculation density: 15 000 spores/ml, approx. 33 ml of spore suspension/plant. The disease level of the plants was evaluated 10 days after the inoculation with Botrytis cinerea.

[2] = test system: Solanum lycopersicum ‘Rentita’; test: Shoot length test on tomatoes under oxygen deficiency conditions in the nutrient solution; conditions: 1.0 mg a.i./plant; floating box, nutrient solution not aerated (oxygen deficiency stress); average maximum shoot length after 19 d
Procedure: To prepare a suitable solution of the preparation, 1 part by weight of active substance is mixed with water to give the desired concentration.
as §1, §2
After the desired period of time, the maximum shoot length per tomato plant is measured, and the average shoot length per floating box and treatment is calculated.

[3] = test system: Triticum aestivum ‘Dekan’; test: Leaf biomass test on wheat under oxygen deficiency conditions in the nutrient solution; conditions: 0.5 mg a.i./plant, floating box, nutrient solution not aerated (oxygen deficiency stress)
Text: (§3) To prepare a suitable solution of the preparation, 1 part by weight of formulated product is mixed with water to give the desired concentration.
(§4) Wheat kernels (Triticum aestivum ‘Dekan’) or tomato seeds (Solanum lycopersicum ‘Rentita’) are sown in compost and grown under suitable climatic conditions in a floating box provided with the solution of the preparation. The nutrient solution of the floating box was not aerated (oxygen deficiency stress).
(§5) After the desired period of time, the leaf biomass per wheat or tomato plant is measured, and the average weight per floating box and treatment is calculated.

[4] = test system: Triticum aestivum ‘Dekan’; test: Root growth test of wheat under oxygen deficiency conditions in the nutrient solution; conditions: 0.5 mg a.i./plant; floating box, nutrient solution not aerated (oxygen deficiency stress); average maximum root length after 14 d
Procedure: To prepare a suitable solution of the preparation, I part by weight of formulated product is mixed with water to give the desired concentration.
Wheat kernels (Triticum aestivum ‘Dekan’) are sown in compost and grown under suitable climatic conditions in a floating box provided with the solution of the preparation. The nutrient solution of the floating box was not aerated (oxygen deficiency stress).
After the desired period of time, the maximum length of the root per wheat plant is measured, and the average root length per floating box and treatment is calculated.

[5] = test system: Solanum lycopersicum ‘Rentita’; test: Leaf biomass test on tomatoes under oxygen deficiency conditions in the nutrient solution; conditions: 1.0 mg a.i./plant, floating box, nutrient solution not aerated (oxygen deficiency stress)
Text: as §3, §4, §5

SMILES | Root growth of tomatoes: Length in cm after 12 d [1] | Disease level Ø (Botrytis cinerea) | Shed leaves Ø (Botrytis cinerea) | Disease level, replicates 1-9 (Botrytis cinerea) | Shed leaves, replicates 1-9 (Botrytis cinerea) | Disease level and shed leaves (Botrytis cinerea) | Shoot length of tomatoes: Length in cm after 19 d [2] | other results
CN(Cc1ccc(Cl)nc1)C1=CC(=O)CC1 [Compound (I-18), 3-{[(6-chloropyrid-3-yl)methyl](methyl)amino}cyclopent-2-en-1-one] | 7.56 cm |  |  |  |  |  |  | 
CN(Cc1ccc(Cl)nc1)C1=CC(=O)OC1 [Compound (I-34), 4-{[(6-chloropyrid-3-yl)methyl](methyl)amino}furan-2(5H)-one] | 9.53 cm | 3 | 3 | 5 and 2 (4×) and 3 (2×) and 4 (2×) | 3 (3×) and 0 and 4 (3×) and 5 and 2 | 61 | 6.75 cm | 
O=C1C=C(N(Cc2ccc(Cl)nc2)CC(F)F)CO1 [Compound (I-7), 4-{[(6-chloropyrid-3-yl)methyl](2,2-difluoroethyl)amino}furan-2(5H)-one] | 8.67 cm | 3 | 3 | 3 (6×) and 2 and 4 and 5 | 5 (3×) and 6 and 3 (2×) and 4 and 2 and 1 | 68 | 7.15 cm | Leaf biomass of wheat: Weight in g after 22 d [3]: 15.7 g; Root growth of wheat: Length in cm after 14 d [4]: 22.1 cm; Leaf biomass of tomato: Weight in g after 21 d [5]: 19.4 g
CN(Cc1cnc(Cl)c(F)c1)C1=CC(=O)OC1 [Compound (I-8), 4-{[(6-chloro-5-fluoropyrid-3-yl)methyl](methyl)amino}furan-2(5H)-one] | 7.43 cm |  |  |  |  |  | 6.6 cm | 
O=C1C=C(N(CCF)Cc2ccc(Cl)nc2)CO1 [Compound (I-6), 4-{[(6-chloropyrid-3-yl)methyl](2-fluoroethyl)amino}furan-2(5H)-one] | 11.08 cm |  |  |  |  |  | 7.33 cm | 
CC1OC(=O)C=C1N(C)Cc1ccc(Cl)nc1 (stereo not drawn) [Compound (I-25), 4-{[(6-chloropyrid-3-yl)methyl](methyl)amino}-5-methylfuran-2(5H)-one] | 9.19 cm |  |  |  |  |  | 6.8 cm | 
O=C1C=C(N(CCF)Cc2cnc(Cl)c(Cl)c2)CO1 [Compound (I-14), 4-{[(5,6-dichloropyrid-3-yl)methyl](2-fluoroethyl)amino}furan-2(5H)-one] | 6.97 cm |  |  |  |  |  |  | 
O=C(NCCc1ncc(C(F)(F)F)cc1Cl)c1ccccc1C(F)(F)F [Fluopyram, fluopyram, reference compound] |  | 1 | 0 | 5 (3×) and 2 and 1 (3×) and 3 (2×) | 0 | 11 |  | Appearance of infected leaf tissue (symptoms of the disease) (Botrytis cinerea; 10 d post-inoculation with Botrytis cinerea, FIGS. 4-6, in words): remains dark and wet
O=C1C=C(N(Cc2ccc(Cl)nc2)C2CC2)CO1 [Compound (I-31), 4-{[(6-chloropyrid-3-yl)methyl](cyclopropyl)amino}furan-2(5H)-one] | 11.16 cm |  |  |  |  |  | 6.78 cm | 
